Results on 12 compounds are retold here after patent US20070129409A1, “Androgen receptor modulators” (priority 2003, published 2007).

Data set [1] deals with T1, hAR (human androgen receptor) (Homo sapiens, UniProt P10275).
T1 construct: made in house; host or cells: baculovirus/Sf9 insect cells
T1 sequence (P10275 1-920): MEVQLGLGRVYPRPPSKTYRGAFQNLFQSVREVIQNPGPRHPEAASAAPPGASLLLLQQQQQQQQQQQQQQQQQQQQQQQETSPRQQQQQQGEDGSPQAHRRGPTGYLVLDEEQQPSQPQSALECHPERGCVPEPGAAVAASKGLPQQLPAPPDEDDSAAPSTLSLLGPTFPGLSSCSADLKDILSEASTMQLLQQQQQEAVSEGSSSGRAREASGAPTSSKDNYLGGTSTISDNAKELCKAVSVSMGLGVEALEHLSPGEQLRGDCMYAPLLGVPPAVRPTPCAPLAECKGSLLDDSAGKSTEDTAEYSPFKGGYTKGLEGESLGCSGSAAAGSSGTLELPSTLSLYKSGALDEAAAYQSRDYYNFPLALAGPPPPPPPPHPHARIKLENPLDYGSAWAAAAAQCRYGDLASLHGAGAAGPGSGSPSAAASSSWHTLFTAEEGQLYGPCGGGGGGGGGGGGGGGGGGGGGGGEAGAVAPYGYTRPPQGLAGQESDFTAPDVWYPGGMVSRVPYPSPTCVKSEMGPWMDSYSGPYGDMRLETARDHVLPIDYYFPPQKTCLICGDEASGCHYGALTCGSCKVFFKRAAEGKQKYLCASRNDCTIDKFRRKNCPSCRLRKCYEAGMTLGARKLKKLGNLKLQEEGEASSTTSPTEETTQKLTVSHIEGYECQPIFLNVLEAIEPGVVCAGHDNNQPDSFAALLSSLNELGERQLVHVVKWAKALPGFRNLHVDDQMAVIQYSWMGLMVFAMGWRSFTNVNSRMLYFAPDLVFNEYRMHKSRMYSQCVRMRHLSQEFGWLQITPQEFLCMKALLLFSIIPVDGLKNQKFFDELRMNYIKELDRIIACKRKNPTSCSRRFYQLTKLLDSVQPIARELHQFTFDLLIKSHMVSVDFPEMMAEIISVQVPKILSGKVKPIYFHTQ
Description: Competitive binding analysis on hAR extracts with 3H-DHT tracer. The procedure:
The description below describes how the assay was carried out.
Competitive binding analysis was performed on baculovirus/Sf9 generated hAR extracts in the presence or absence of different concentrations of test agent and a fixed concentration of ^3H-dihydrotestosterone (^3H-DHT) as tracer. This binding assay method is a modification of a protocol previously described (Liao S., et. al. J. Steroid Biochem. 20:11-17 1984). Briefly, progressively decreasing concentrations of compounds are incubated in the presence of hAR extract (Chang et al. P.N.A.S. Vol. 89, pp. […], 1992), hydroxylapatite, and 1 nM^3 H-DHT for one hour at 4° C. Subsequently, the binding reactions are washed three times to completely remove excess unbound ^3H-DHT. hAR bound ^3H-DHT levels are determined in the presence of compounds (=i.e competitive binding) and compared to levels bound when no competitor is present (=i.e. maximum binding). Compound binding affinity to the hAR is expressed as the concentration of compound at which one half of the maximum binding is inhibited.

The target in data set [2] is T2, androgen receptor (Homo sapiens, UniProt P10275, Q868H).
T2 construct: a human breast tumor cell line expressing androgen receptor; endogenous in cells; host or cells: MDA-MB453-MMTV clone 54-19 (MDA-MB-453 stably transfected with the MMTV-luciferase reporter only)
T2 sequence (P10275 1-920 Q868H): T1 sequence (P10275 1-920) with Q868H
Description: AR antagonist cell assay (MDA-MB453-MMTV luciferase reporter, 100 pM DHT). Type of data set: cell-based. The procedure:
The compounds ability to antagonize the effects of androgen on the androgen receptor were determined in a whole cell assay as described immediately below.
Experimental Procedure for AR Antagonist Cell Assay
This cell line is a stable transfected cell line with MDA-MB453 cell background (a human breast tumor cell line expressing androgen receptor). A MMTV minimal promoter containing ARE was first cloned in front of a firefly luciferase reporter gene. Then the cascade was cloned into transfection vector pUV120puro. […] Puromycin resistant stable cell line was selected.
Cell Culture Media and Reagents:
Plating medium: DMEM (phenol red free), 10% charcoal treated HyClone serum, 1% L-glutamine
Assay medium: DMEM (phenol red free), 1% charcoal treated HyClone serum, 1% L-glutamine, and 1% penicillin/streptomycin
• 1. Cells are maintained in culture medium, splitting cells when they reach 80-90% confluence • 2. To test compounds, 10,000 cells/well are plated to opaque 96 cell culture plate in 100 uvwell plating medium, culture for overnight at 37° C. in cell culture incubator • 3. […] Add 10 ul/well freshly prepared DHT (final concentration at 100 pM) to each well, incubate at 37° C. for 17 hr (overnight) • 5.
The results are reported as the mean of multiple tests as described below (the numbers of tests are indicated in the footnote). N.D. denotes that the compound was not tested.

For data set [3], the system named is Male C3H/HeN mice. Description: Modified telogen conversion assay. To be noted: 3% w/v in propylene glycol (30%)/ethanol (70%), topical, twice daily for 4 weeks. In kind it is in vivo. The source says:
The telogen conversion assay measures the potential of a compound to convert mice in the resting stage of the hair growth cycle (“telogen”) to the active stage of the hair growth cycle (“anagen”). This assay takes advantage of the fact that the fur (i.e. hair) of 7 week old C3H/HeN mice is in the telogen phase. This phase continues until about 75 days of age. In this assay, selected areas of the mice are shaved, contacted with a test agent, or a control, and the difference in the rate of hair growth is measured (i.e. induction of the anagen phase). The first sign of anagen is the darkening of skin color as melanocytes in the follicles start to synthesize melanin, in preparation for the production of pigmented hairs. This model has a number of advantages. This includes the ready availability of female CH3HeN mice, the ability to screen large numbers of compounds quickly, and the ease of housing and handling such animals.
It has been discovered that male C3H/HeN mice may be used in the telogen conversion assay, when evaluating anti-androgen test compounds. Thus, the model relates to a modification of the existing telogen conversion assay. […]
The treatment area was observed and graded every other day for signs of hair growth. The hair growth response was quantified by recording, for each animal, the day on which signs of hair growth first appeared over the treated area. […]

For data set [4] the following is noted: after 7 years of treatment; cited from earlier work.
[5] abbreviates: baculovirus/Sf9 generated hAR extract, 1 nM 3H-DHT, one hour at 4° C., mean of repeated tests, read-out: AR Binding IC50.
Setting [6] is: MDA-MB453-MMTV clone 54-19, 100 pM DHT, 17 hr, mean of multiple tests, read-out: AR Cell IC50.

Residue numbers refer to the chain shown, from its start. Read-outs that look alike come from different tables or passages of the source.

Regarding “2-Chloro-6-(methyl-propyl-amino)-4-trifluoromethyl-nicotinonitrile [Example 12]”, the IC50 in data set [1] (setting [5]) came out at 88 nM; in data set [2] (setting [6]), 587 nM.
Consider `C[C@H](c1ccccc1)N(C)c1cc(C(F)(F)F)c(C#N)cn1` (hydrate or solvate) [Example 1, (R)-(+)-6-[Methyl-(1-Phenyl-ethyl)-amino]-4-trifluoromethyl-nicotinonitrile], for which the melting point was 47.2 to 47.7 °C.
With `C[C@H](c1ccccc1)N(C)c1cc(C(F)(F)F)c(C#N)cn1` [Example 1, (R)-(+)-6-[Methyl-(1-Phenyl-ethyl)-amino]-4-trifluoromethyl-nicotinonitrile], the IC50 in data set [1] is 20 nM; in data set [2], 45 nM. In data set [3], the “hair growth (induction of anagen)” value is listed as “produced substantial hair growth”.
For `CC(c1ccccc1)N(C)c1cc(C(F)(F)F)c(C#N)cn1` (centres unmarked) [Example 2, 6-[Methyl-(1-Phenyl-ethyl)-amino]-4-trifluoromethyl-nicotinonitrile], the values for the IC50 in data set [1] and in data set [2] were 123 nM and 229 nM, respectively.
`CCCN(CCC)c1cc(C(F)(F)F)c(C#N)cn1` [Example 3, 6-Dipropylamino-4-trifluoromethyl-nicotinonitrile]: the IC50 in data set [1] was 22 nM; in data set [2] (setting [6]), greater than 1000 nM.
Taken in the same sequence, the figures for `CCC(C)N(C)c1cc(C(F)(F)F)c(C#N)cn1` (centres unmarked) [Example 4, 6-(sec-Butyl-methyl-amino)-4-trifluoromethyl-nicotinonitrile] were 10 nM and greater than 1000 nM.
Regarding `CCCCN(CCO)c1cc(C(F)(F)F)c(C#N)cn1` [Example 5, 6-[Butyl-(2-hydroxy-ethyl)-amino]-4-trifluoromethyl-nicotinonitrile], the IC50 in data set [1] (setting [5]) is 548 nM.
On to `CN(Cc1ccccc1)c1cc(C(F)(F)F)c(C#N)cn1` [Example 7, 6-(Benzyl-methyl-amino)-4-trifluoromethyl-nicotinonitrile], for which the IC50 in data set [1] (setting [5]) turned out to be 538 nM.
In the case of `CCCN(c1cc(C(F)(F)F)c(C#N)cn1)C1CCCCC1` [Example 8, 6-(Cyclohexyl-propyl-amino)-4-trifluoromethyl-nicotinonitrile], in data set [1] (setting [5]), the IC50 is 425 nM.
Turning to `CCC(C)N(C)c1cc(C(F)(F)F)c(C#N)c(Cl)n1` (centres unmarked) [Example 10], the IC50 is 0.5 nM in data set [1] and greater than 1000 nM in data set [2] (setting [6]).
For `CCCN(CCC)c1cc(C(F)(F)F)c(C#N)c(Cl)n1` [Example 11, 6-Dipropylamino-2-chloro-4-rtifluoromethyl-nicotinonitrile], in that order: 8.2 nM and greater than 1000 nM.
Take `NCCCC(O)(P(=O)(O)O)P(=O)(O)O` [alendronate]: in data set [4], the “increase in spinal BMD” value is no more than 11%.
